Laboratory results taken from patent publication US20040029908A1, “Tricyclo compounds, a process for their production and a pharmaceutical composition containing the same” (FUJISAWA PHARMACEUTICAL CO., LTD., priority 1984, published 2004).

Experiments:
[1] = tested on: Local Graft-versus-Host Reaction in BDF1 mice; assay: Local Graft-versus-Host Reaction (GvHR) in Mice; format: in vivo; details: Mus musculus, po; orally for five days; weight difference right and left popliteal lymph nodes, day 7; read-out: ED50 for prevention of the local graft-versus-host reaction
Description: The viable spleen cells ([…] cells) from C57BL/6 donors were injected subcutaneously into the right hind foot pad of BDF1 mice to induce local GvHR. The mice were killed 7 days later and both right (injected paw) and left (uninjected paw) popliteal lymph nodes (PLN) were weighed. The GVHR was expressed as the weight difference between right and left PLN. The FR-900506 substance was dissolved in olive oil and administered orally for five days starting on the same day as sensitization.

[2] = tested on: Antibody formation to sheep erythrocytes (SRBC) in BDF1 mice; assay: Antibody Formation in mice (haemagglutination test); format: in vivo, mouse
Description: Male BDF1 mice 6 to 8 weeks of age were used for this test. The mice were immunized on day 0 with […] sheep erythrocytes (SRBC) intraperitoneally. Serum aggulutinin titers were determined for each individual animal with sedimentation of erythrocytes by serial two fold dilutions. The titers are expressed as -log2 The FR-900506 substance was administered orally for 5 days from one day before immunization to day 3.

[3] = tested on: Plaque Forming Cell (PFC) Response in C3H/He mice; assay: in vivo Plaque Forming Cell (PFC) Response in Mice; set-up: species or system mouse
Description: Male C3H/He mice 6 to 7 weeks of age were used for this 1 test. The mice were immunized on day 0 with 0.2 ml of 1 ×10^8 washed sheep erythrocytes intravenously. Spleens were removed on day 4 and spleen cells were incubated in the presence of SRBC as described by Cunningham and Szenberg (1968). Tests were evaluated by enumeration of direct generated plaque forming cells in the presence of complement. Suspensions of spleen cells were counted with a Microcellcounter CC-130 (Sysmex, Japan) and PFC results were calculated as PFC/10^6 recovered cells. The FR-900506 substance was administered orally for 4 days starting from the immunization.

DTH to MBSA in BDF1 mice = assay: Delayed Type Hypersensitivity (DTH) Response to methylated bovine serum albumin (MBSA); format: in vivo, mouse
Description: Female BDF1 mice were used for this test. The mice were sensitized with a subcutaneous injection of 0.1 ml emulsion consisting of equal volume of MBSA (2 mg/ml) and Freund's incomplete adjuvant(FIA). Seven days later, a 0.05 ml challenge dose of 0.4 mq/ml MIBSA in saline was injected into the plantar region of the right hind foot and 0.05 ml saline into the left hind foot to act as a control. Twenty four hours after challenge, both hind feet were measured with a dial gauge and the mean challenge in footpad thickness was measured. The FR-900506 substance was injected for 8 days orally, starting from the sensitization.

[4] = tested on: interleukin 3 and interferones; assay: Lymphokine production in the supernatant of MLR; format: cell-based, mouse; details: especially y-interferone
Description: The mixed lymphocyte reaction (MILR) was performed in microtiter plates, with each well containing 5 ×10^5 C57BL/6 responder cells (H-2^b), 5 ×10^5 mitomycin C treated (25 μg/ml mitomycin C at 37° C. for 30 minutes and washed three times pith RPMI 1640 medium) BALB/C stimulator cells ([…]) in 0.2 ml RPMI 1640 medium supplemented with 10% fetal calf serum, 2mM sodium hydrogen carbonate, penicillin 20 (50 unites/ml) and streptomycin (50 μg/ml) . The cells were incubated at 37° C. in humidified atmosphere of 5% carbon dioxide and 95% of air for 48 hours and the supernatant was collected. The FR-900506 substance was dissolved in ethanol and further diluted in RPMI 1640 medium and added to the cultures to give final concentrations of 0.1 μg/ml or less.

[5] = Solubility (physical and chemical properties); format: physicochemical

SMILES: C=CCC1/C=C(\C)CC(C)CC(OC)C2OC(O)(C(=O)C(=O)N3CCCCC3C(=O)OC(/C(C)=C/C3CCC(O)C(OC)C3)C(C)C(O)CC1=O)C(C)CC2OC (stereo not drawn) [FR-900506, 17-Allyl-1,14-dihydroxy-12-[2-(4-hydroxy-3-methoxycyclohexyl)-1-methyvinyl]-23-25-dimethoxy-13,19,21,27-tetramethyl-11,28-dioxa-4-azatricyclo[22.3.1.0^4,9]octacos-18-ene-2,3,10,16-tetraone]
- ED50 [1]: 19 mg/kg
- Haemagglutination Mean log2 titer ± SE ([2]; 10 mg/kg orally for 5 days): 7.6 ± 0.4
- Haemagglutination Mean log2 titer ± SE ([2]; 32 mg/kg orally for 5 days): 6.0 ± 0.45
- Haemagglutination Mean log2 titer ± SE ([2]; 100 mg/kg orally for 5 days): 4.4 ± 0.75
- ED50 ([2]; Erythrocyte, po, orally for 5 days from one day before immunization to day 3): 16.9 mg/kg
- PFC/10^6 cells ([3]; 3.2 mg/kg orally for 4 days): 3618 ± 476 PFC/10^6 cells
- PFC/10^6 cells ([3]; 10 mg/kg orally for 4 days): 1382 ± 243 PFC/10^6 cells
- PFC/10^6 cells ([3]; 32 mg/kg orally for 4 days): 657 ± 41 PFC/10^6 cells
- PFC/10^6 cells ([3]; 100 mg/kg orally for 4 days): 278 ± 41 PFC/10^6 cells
- ED50 ([3]; Mus musculus, po, 96 h, orally for 4 days starting from the immunization): 5.9 mg/kg
- Footpad Swelling (DTH to MBSA in BDF1 mice; 10 mg/kg orally for 8 days): 31.0 ± 4.4 × 10^−3 cm
- Footpad Swelling (DTH to MBSA in BDF1 mice; 32 mg/kg orally for 8 days): 20.8 ± 4.4 × 10^−3 cm
- Footpad Swelling (DTH to MBSA in BDF1 mice; 100 mg/kg orally for 8 days): 7.8 ± 1.6 × 10^−3 cm
- ED50 (DTH to MBSA in BDF1 mice; Mus musculus, po, 192 h, orally for 8 days starting from the sensitization): 18.4 mg/kg
- Lymphokine production (in words) [4]: inhibited lymphokine production such as interleukin 3 and interferones
- Solubility ([5]; hexane (n-hexane), petroleum ether): Sparingly Soluble
- Solubility ([5]; methanol, ethanol, acetone, ethyl acetate, chloroform, diethyl ether and benzene): Soluble
- Solubility ([5]; water): Insoluble
